Assay [1] concerns the target T1, PPARα (Homo sapiens, UniProt Q07869).
T1 construct: PPARα (aa 167 to 469); made in house; host or cells: E. coli BL21(pLysS)
T1 sequence (Q07869 167-468 limits assumed): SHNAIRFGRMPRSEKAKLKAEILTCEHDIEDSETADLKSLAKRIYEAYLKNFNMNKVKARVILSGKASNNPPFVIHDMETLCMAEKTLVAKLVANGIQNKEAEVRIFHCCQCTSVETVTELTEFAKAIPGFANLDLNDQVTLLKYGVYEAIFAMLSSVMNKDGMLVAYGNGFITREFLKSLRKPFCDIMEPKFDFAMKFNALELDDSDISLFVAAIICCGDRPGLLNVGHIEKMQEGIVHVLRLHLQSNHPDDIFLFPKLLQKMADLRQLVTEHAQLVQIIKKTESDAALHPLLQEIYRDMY
Put plainly: Radioligand binding assay (SPA), PPARα receptor binding. The settings on record: GST-PPARα-LBD fusion protein, scintillation proximity counting. The text has this:
(§1) Background information on the performed assays can be found in: Nichols J S et al. “Development of a scintillation proximity assay for peroxisome proliferator-activated receptor gamma ligand binding domain”, (1998) Anal. Biochem. 257:112–119.
(§2) Full-length cDNA clones for humans PPARδ and PPARα and mouse PPARγ were obtained by RT-PCR from human adipose and mouse liver cRNA, respectively, cloned into plasmid vectors and verified by DNA sequencing. Bacterial and mammalian expression vectors were constructed to produce glutathione-s-transferase (GST) and Gal4 DNA binding domain proteins fused to the ligand binding domains (LBD) of PPARδ (aa 139 to 442), PPARγ (aa 174 to 476) and PPARα (aa 167 to 469). To accomplish this, the portions of the cloned sequences encoding the LBDs were amplified from the full-length clones by PCR and then subcloned into the plasmid vectors. Final clones were verified by DNA sequence analysis.
(§3) Induction, expression, and purification of GST-LBD fusion proteins were performed in E. coli strain BL21(pLysS) cells by standard methods (Ref: Current Protocols in Molecular Biology, Wiley Press, edited by Ausubel et al.).
(§4) PPARα receptor binding was assayed in TKE50 (50 mM Tris-HCl, pH 8, 50 mM KCl, 2 mM EDTA, 0.1 mg/ml fatty acid-free BSA and 10 mM DTT). For each 96 well reaction an 140 ng equivalent of GST-PPARα-LBD fusion protein was bound to 10 μg SPA beads (PharmaciaAmersham) in a final volume of 50 μl by shaking. The resulting slurry was incubated for 1 h at RT and centrifuged for 2 min at 1300 g. The supernatant containing unbound protein was removed and the semidry pellet containing the receptor-coated beads was resolved in 50 μl of TKE. […] All binding assays were performed in 96 well plates and the amount of bound ligand measured on a Packard TopCount using OptiPlates (Packard). Nonspecific binding was determined in the presence of 10^−4 M unlabelled compound. […]
Background: Scintillation proximity formats need no separation of bound from free tracer.

The target of assay [2] is T2, PPARδ (Homo sapiens, UniProt Q03181).
T2 construct: PPARδ (aa 139 to 442); made in house; host or cells: E. coli BL21(pLysS)
T2 sequence (Q03181 139-441 limits assumed): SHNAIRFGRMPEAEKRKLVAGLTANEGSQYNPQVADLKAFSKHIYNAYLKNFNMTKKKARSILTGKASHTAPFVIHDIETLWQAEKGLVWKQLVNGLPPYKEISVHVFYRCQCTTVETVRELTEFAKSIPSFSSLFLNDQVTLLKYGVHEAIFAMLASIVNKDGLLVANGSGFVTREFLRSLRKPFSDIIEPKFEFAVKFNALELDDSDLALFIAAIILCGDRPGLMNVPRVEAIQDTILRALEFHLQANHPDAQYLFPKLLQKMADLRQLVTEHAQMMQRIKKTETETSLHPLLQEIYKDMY
Kind of assay: Radioligand binding assay (SPA), PPARδ receptor binding. To be noted: GST-PPARδ-LBD fusion protein, scintillation proximity counting.
Description: as §1, §2, §3
PPARδ receptor binding was assayed in HNM10 (50 mM Hepes, pH 7.4, 10 mM NaCl, 5 mM MgCl2, 0.15 mg/ml fatty acid-free BSA and 15 mM DTT). For each 96 well reaction a 500 ng equivalent of GST-PPARδ-LBD fusion protein and radioligand, e.g. 20000 dpm {2-methyl-4-[4-methyl-2-(4-trifluoromethyl-phenyl)-thiazol-5-yl-ditritiomethylsulfanyl]-phenoxy}-acetic acid, was bound to 10 μg SPA beads (PharmaciaAmersham) in a final volume of 50 μl by shaking. The resulting slurry was incubated for 1 h at RT and centrifuged for 2 min at 1300 g. […] Radioligand was added and the reaction incubated at RT for 1 h and scintillation proximity counting performed in the presence of test compounds was determined. All binding assays were performed in 96 well plates and the amount of bound ligand was measured on a Packard TopCount using OptiPlates (Packard). […]

Assay [3] concerns the target T3, PPARγ (Mus musculus, UniProt P37238).
T3 construct: PPARγ (aa 174 to 476); made in house; host or cells: E. coli BL21(pLysS)
T3 sequence (P37238 174-475 isoform P37238-2): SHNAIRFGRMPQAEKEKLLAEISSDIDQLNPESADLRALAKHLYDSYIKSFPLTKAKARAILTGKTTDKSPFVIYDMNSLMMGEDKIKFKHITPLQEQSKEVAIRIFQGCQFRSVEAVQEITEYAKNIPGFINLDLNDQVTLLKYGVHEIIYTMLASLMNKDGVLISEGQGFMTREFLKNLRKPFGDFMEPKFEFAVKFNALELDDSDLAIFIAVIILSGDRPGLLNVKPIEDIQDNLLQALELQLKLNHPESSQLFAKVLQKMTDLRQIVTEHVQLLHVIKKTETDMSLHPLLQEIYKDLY
Kind of assay: Radioligand binding assay (SPA), PPARγ receptor binding. To be noted: GST-PPARγ-LBD fusion protein, scintillation proximity counting.
Description: as §1, §2, §3
as §4, with “PPARγ” for “PPARα”, “GST-PPARγ-LBD” for “GST-PPARα-LBD”, “ul” for “μl”

Some results are limits rather than exact numbers.

For orientation: IC50 means the concentration at which inhibition is half-maximal. A higher IC50 goes with weaker potency. Turning to `Cc1nc(-c2ccc(C(F)(F)F)cc2)ncc1COc1ccc2c(ccn2CC(=O)O)c1` [Example 2, {5-[4-Methyl-2-(4-trifluoromethyl-phenyl)-pyrimidin-5-ylmethoxy]-indol-1-yl}-acetic acid], the IC50 in assay [1] is 1320 nM; in assay [2] it was 83 nM; in assay [3] it was above 10000 nM.
`O=C(O)Cn1ccc2ccc(OCc3cnc(-c4ccc(C(F)(F)F)cc4)nc3C3CC3)cc21` [Example 7, {6-[4-Cyclopropyl-2-(4-trifluoromethyl-phenyl)-pyrimidin-5-ylmethoxy]-indol-1-yl}-acetic acid]: the IC50 in assay [1] was 211 nM; in assay [2], 1 nM; in assay [3] it was above 10000 nM.
With `Cc1nc(-c2ccc(C(F)(F)F)cc2)ccc1COc1ccc2c(c1)N(CC(=O)O)CC2` [Example 6, {6-[2-Methyl-6-(4-trifluoromethyl-phenyl)-pyridin-3-ylmethoxy]-2,3-dihydro-indol-1-yl}-acetic acid], the IC50 was 1580 nM in assay [1], 17 nM in assay [2] and above 10000 nM in assay [3].

Values taken from patent publication US6995263B2, “Indolyl and dihydroindolyl derivatives, their manufacture and use as pharmaceutical agents” (Hoffmann-La Roche Inc., priority 2003, dated 2006).
